# pIC50: −log10 of the molar value.
# System: cultured human mast cells (CHMC)
# Experiment: CHMC low cell density IgE activation: tryptase assay
# Assay type: cell-based
# Settings: anti-IgE
# Protocol: Pellet CHMC cells (980 rpm, 10 min) and resuspend in pre-warmed MT. Add 65 ul of cells to each 96-well plate. Depending on the degranulation activity for each particular CHMC donor, load 1000-1500 cells/well. Mix four times followed by a 1 hr incubation at 37° C. […] Stimulate cells by adding 25 ul of 6× anti-IgE solution to the appropriate plates. Add 25 ul MT to un-stimulated control wells. Mix twice following addition of the anti-IgE. Incubate at 37° C. for 30 minutes. […] Spin plates at 1000 rpm for 10 min to pellet cells. Transfer 25 ul of supernatant to a 96-well black bottom plate and add 100 ul of freshly diluted tryptase substrate solution to each well. Incubate plates at room temperature for 30 min.
row,Molecule,pIC50
1,"CNC(=O)COc1cccc(Nc2ncc(F)c(Nc3ccc(OC)c(CN(C(=O)OC(C)(C)C)C(C)C)c3)n2)c1 [R940319, N4-(3-(N-tert-Butoxycarbonyl-N-iso-propylaminomethylene)-4-methoxyphenyl)-5-fluoro-N2-[3-(methylaminocarbonylmethyleneoxy)phenyl]-2,4-pyrimidinediamine]",< 5.00
2,"CC(=O)Nc1cccc(N(C(C)=O)c2nc(N(C(C)=O)c3cccc(N(C(C)=O)C(C)=O)c3)ncc2F)c1 [R950246, N4-(3-N-Acetylaminophenyl)-N2-(3-N,N-diacetylaminopheny)-5-fluoro-N2,N4-pyrimidinediacetylamine]",< 5.00
3,"CNC(=O)COc1cccc(Nc2ncc(F)c(Nc3ccc4c(c3)N(c3ccccn3)CC(C)(C)O4)n2)c1 [R940337, N4-[3-Dihydro-2,2-dimethyl-4-(2-pyridyl)-benzo[1,4]oxazin-6-yl]-5-fluoro-N2-[3-(methylaminocarbonylmethyleneoxy)phenyl]-2,4-pyrimidinediamine]",5.96
4,"CC(=O)N(C(C)=O)c1cccc(N(C(C)=O)c2ncc(F)c(N(C(C)=O)c3cccc(N(C(C)=O)C(C)=O)c3)n2)c1 [R950247, N2,N4-Bis(3-N,N-diacetylaminophenyl)-5-fluoro-N2,N4-pyrimidinediacetylamine]",< 5.00
5,"CNC(=O)COc1cccc(Nc2ncc(F)c(Nc3cnc4c(c3)OCCN4)n2)c1 [R945263, 5-Fluoro-N2-(3-methylaminocarbonylmethyleneoxyphenyl)-N4-[2H-pyrido[3,2-b]-1,4-oxazin-7-yl]-2,4-pyrimidinediamine]",5.78
6,"COc1cc(C(=O)NS(=O)(=O)c2ccccc2C)ccc1Cn1ncc2cc(Nc3ncc(F)c(Nc4ccc5c(c4)OCCO5)n3)ccc21 [R935339, N4-(3,4-Ethylenedioxyphenyl)-5-fluoro-N2-[1-[2-methoxy-4-(o-toluylsulfonamidocarboxy)benzyl]indazoline-5-yl]-2,4-pyrimidinediamine]",< 5.00
7,Fc1cnc(Cl)nc1Nc1ccc(Cl)c(Cl)c1 [Compound R926884],< 5.00
8,"COC(=O)c1ccc(Cn2ncc3ccc(Nc4ncc(F)c(Nc5ccc6c(c5)OCCO6)n4)cc32)c(OC)c1 [R935320, N4-(3,4-Ethylenedioxyphenyl)-5-fluoro-N2-[1-(2-methoxy-4-carbomethoxybenzyl)indazoline-6-yl]-2,4-pyrimidinediamine]",5.56
9,"CCOC(=O)C(C)(C)Oc1cccc(Nc2ncc(F)c(Nc3ccc4cc[nH]c4c3)n2)c1 [R926909, N2-[3-(Ethoxycarbonyl-1,1-dimethylmethyleneoxy)phenyl]-5-fluoro-N4-[(1H)-indol-6-yl]-2,4-pyrimidinediamine]",6.42
10,"O=C(O)COc1cccc(Nc2ncc(F)c(Nc3ccc4c(c3)OCCO4)n2)c1 [R926483, N2-(3-Carboxymethyleneoxyphenyl)-N4-(3,4-ethylenedioxyphenyl)-5-fluoro-2,4-pyrimidinediamine]",< 5.00
11,"CN(C)C(=O)COc1cccc(Nc2ncc(F)c(Nc3ccc4c(c3)NCCO4)n2)c1 [R909290, N2-[3-(N,N-Dimethylaminocarbonylmethyleneoxy)phenyl]-N4-(1,4-benzoxazin-6-yl)-5-fluoro-2,4-pyrimidinediamine]",6.65
12,COc1ccc(Nc2nc(Cl)ncc2F)cc1CN1CCOCC1 [Compound R940313],< 5.00
13,"CCOC(=O)CCn1ncc2cc(Nc3nc(Nc4ccc(OC(C)C)cc4)ncc3F)ccc21 [R935306, N4-[1-(2-Ethoxycarbonylethyl)indazoline-5-yl]-5-fluoro-N2-(4-isopropoxyphenyl)-2,4-pyrimidinediamine]",6.46
14,"CCOc1ccc(Nc2nc(Nc3cccc(OCC(=O)NC)c3)ncc2F)cc1N [R950388, N4-(3-Amino-4-ethoxyphenyl)-5-fluoro-N2-[3-(N-methylamino)carbonylmethyleneoxyphenyl]-2,4-pyrimidinediamine]",5.60
15,"COc1cc(C(=O)NS(=O)(=O)c2ccccc2C)ccc1Cn1ncc2ccc(Nc3ncc(F)c(Nc4ccc(OC(C)C)cc4)n3)cc21 [R935322, 5-Fluoro-N4-(4-isopropoxyphenyl)-N2-[1-[2-methoxy-4-(o-toluylsulfonamidocarboxy)benzyl]indazoline-6-yl]-2,4-pyrimidinediamine]",5.47
16,"N2-(N-Ethylcarbonylmethyleneoxy-1,4-benzoxazin-6-yl)-5-fluoro-N2-[3-hydroxyphenyl)phenyl]pyrimidinediamine [R908734]",5.86
17,Fc1cnc(Cl)nc1Nc1ccc2ncccc2c1 [Compound R920409],< 5.00
18,CC1(C)Oc2cc(Nc3nc(Cl)ncc3F)cnc2NC1=O [Compound R940344],< 5.00
19,COc1ccc(Nc2nc(Cl)ncc2F)cn1 [Compound R926878],< 5.00
20,Fc1cnc(Cl)nc1Nc1ccc2c(c1)OC(F)(F)O2 [Compound R920403],< 5.00
21,"COC(=O)c1cc2cc(Nc3ncc(F)c(Nc4ccc5c(c4)NC(=O)C(C)(C)O5)n3)ccc2o1 [R940354, N4-[(2,2-Dimethyl-4H-benzo[1,4]oxazin-3-one)-6-yl]-5-fluoro-N2-(2-methoxycarbonylbenzofur-5-yl)-2,4-pyrimidinediamine]",6.94
22,"CCOC(=O)C(C)(C)Oc1cccc(Nc2ncc(F)c(Nc3ccc4c(c3)OCCO4)n2)c1 [R926907, N2-[3-(Ethoxycarbonyl-1,1-dimethylmethyleneoxy)phenyl]-N4-(3,4-ethylenedioxyphenyl)-5-fluoro-2,4-pyrimidinediamine]",6.12
23,"CNC(=O)COc1cccc(Nc2ncc(F)c(Nc3ccc(OC)c(CO)c3)n2)c1 [R950386, N4-(3-Hydroxymethylen-4-methoxyphenyl)-5-fluoro-N2-[3-(N-methylamino)carbonylmethyleneoxyphenyl]-2,4-pyrimidinediamine]",6.01
24,CCOC(=O)C=C1NN=C(c2cccc(Nc3nc(Cl)ncc3F)c2)O1 [Compound R926873],< 5.00
25,Fc1cnc(Cl)nc1Nc1ccc(OC(F)(F)F)cc1 [Compound R926875],< 5.00
26,"O=[N+]([O-])c1ccc(NCCO)c(Nc2ccnc(Nc3cc([N+](=O)[O-])ccc3NCCO)n2)c1 [R950156, N2,N4-Bis(2-hydroxyethyleneamino-5-nitrophenyl)-2,4-pyrimidinediamine]",< 5.00
27,"CCOC(=O)CCn1ncc2cc(Nc3ncc(F)c(Nc4ccc5c(c4)OCCO5)n3)ccc21 [R935301, N2-[1-(2-Ethoxycarbonylethyl)indazoline-5-yl]-N4-(3,4-ethylenedioxyphenyl)-5-fluoro-2,4-pyrimidinediamine]",5.39
28,"CCOC(=O)CCn1ncc2cc(Nc3nc(Nc4cccc(O)c4)ncc3F)ccc21 [R935303, N4-[1-(2-Ethoxycarbonylethyl)indazoline-5-yl]-5-fluoro-N2-(3-hydroxyphenyl)-2,4-pyrimidinediamine]",6.61
29,"Cc1cc(Nc2ncc(F)c(Nc3ccc(O)c(C)c3)n2)ccc1O [R926469, N2,N4′-Bis(4-hydroxy-3-methylphenyl)-5-fluoro-2,4-pyrimidinediamine]",< 5.00
30,"Fc1cnc(Nc2ccc3c(c2)OCCO3)nc1Nc1ccc2[nH]ncc2c1 [R935267, N2-(3,4-Ethyelenedioxyphenyl)-5-fluoro-N4-(indazoline-5-yl)-2,4-pyrimidinediamine]",5.61
